These results are taken from US20250275964A1, “METHODS OF INHIBITING LIVER-TYPE GLUTAMINASE, GLS2” (CORNELL UNIVERSITY, priority 2019, published 2025).

One data set concerns MCF7 cells. Put plainly: 6-day cell proliferation assay, MCF7. The class given is cell-based, human. The conditions noted are these: MCF7, proliferation over 6 days. On the procedure: (§1) Human breast cancer cell lines MCF7, BT-474, T-47D, MDA-MB-453, MDA-MB-231, Hs 578T, HCC38, SK-BR-3, and DU4475 were purchased from the American Type Culture Collection (ATCC) and no additional cell authentication was performed. The TSE human breast cancer cell line was supplied by Dr. Steven Abcouwer (University of Michigan). All breast cancer cells were cultured at 37° C. under a 5% CO2 atmosphere in RPMI 1640 medium containing 2 mM glutamine (Gibco) and supplemented with 10% fetal bovine serum (FBS) (Gibco). The 293T cell line (ATCC) used for generating lentivirus particles was cultured as above but using DMEM, high glucose (Gibco).
(§2) Culture medium was added to 12-well plates (1 ml/well) and wells were seeded with cells at Day 0 as follows. MCF7, T-47D, BT-474, HCC38 cells: […] cells/well. MDA-MB-453 and MDA-MB-231 cells: 1×10^4 cells/well. TSE and Hs 578T cells: 0.3×10^4 cells/well. After 16 hours, culture medium was replaced with fresh medium supplemented with appropriate concentrations of inhibitors and was subsequently replaced every 48 hours. On Day 6 cells were trypsinized and suspended in an appropriate volume of culture medium, and the total number of cells per well was determined using a hemocytometer or a TC20 Automated Cell Counter (Bio-Rad).

A further data set relates to MDA-MB-453 cells. Put plainly: 6-day cell proliferation assay, MDA-MB-453. The class given is cell-based, human. The conditions noted are these: MDA-MB-453, proliferation over 6 days. On the procedure:
as §1, §2

In a further data set the test system is TSE cells. Put plainly: 6-day cell proliferation assay, TSE. Format: cell-based, human. On the procedure:
as §1, §2

Another data set deals with HCC38 cells. Put plainly: 6-day cell proliferation assay, HCC38. Format: cell-based, human. The conditions noted are these: HCC38, proliferation over 6 days. On the procedure: as §1, §2
The subject of data set [1] is MDA-MB-231 cells carrying the plasmid vector only. Put plainly: 6-day cell proliferation assay, MDA-MB-231 vector only. Format: cell-based, human. The following applies: 6 days. On the procedure:
as §2
(§3) Vectors for expressing human GAC or GLS2 in breast cancer cell lines were based on pCDNA3.1/V5-His TOPO (Thermo Fisher Scientific), with the appropriate gene sub-cloned in and the tag switched to HA-tag or myc-tag for immunofluorescence experiments. Vectors pQE80-GAC-72-598 and pQE80-GLS2-38-602, for expressing the processed forms of human GAC (residues 72 to 598) or GLS2 (residues 38 to 602) in E. coli, were described in Huang et al., “Characterization of the Interactions of Potent Allosteric Inhibitors with Glutaminase C, a Key Enzyme in Cancer Cell Glutamine Metabolism,” J. Biol. Chem. 293:3535-3545 (2018), which is hereby incorporated by reference in its entirety.
For 60 mm dish format. […]

In data set [2] the test system is MDA-MB-231 cells stably expressing GLS2. Put plainly: 6-day cell proliferation assay, MDA-MB-231 stably expressing GLS2. Format: cell-based, human. On the procedure:
as §2, §3
(§4) For 60 mm dish format. 0.2 ml Opti-MEM (Gibco) containing […] of the appropriate DNA construct, along with 0.2 ml Opti-MEM containing 12 μl Lipofectamine 2000 (Invitrogen), were separately incubated at room temperature for 5 min. The two solutions were combined and incubated for an additional 20 min, mixed with 1.6 ml culture medium and added to cells. After 5 hours incubation at 37° C. the transfection mixture was replaced with fresh culture medium, and cells were then incubated for an additional 48 hours to allow for ectopic expression of GLS or GLS2. To select for cells stably expressing the DNA construct, culture medium supplemented with 500 μg/ml G-418 disulfate (Research Products International) was added and replaced every 2 days for 2-3 weeks until isolated colonies ˜2 mm in diameter were present. Individual colonies were transferred to a 12-well plate (1 colony per well) using sterile blotting paper soaked in trypsin solution and were then cultured in medium supplemented with 250 μg/ml G-418 disulfate. All colonies were screened by western blot for ectopic expression, and positive clones were maintained in medium supplemented with 250 μg/ml G-418 disulfate.

Data set [3] has as its system TSE cells stably expressing GLS2. Put plainly: 6-day cell proliferation assay, TSE stably expressing GLS2. Format: cell-based, human. On the procedure: as §2, §3, §4
The next data set deals with DU4475 cells. Put plainly: 6-day cell proliferation assay, DU4475. Format: cell-based, human. The following applies: DU4475, proliferation over 6 days. On the procedure: as §1, §2
The subject of data set [4] is MDA-MB-453 xenograft tumors. Put plainly: MDA-MB-453 xenograft tumor growth in mice. Format: in vivo. The following applies: 10 mg/kg, 3 times per week from Day 14 for three weeks, NSG mice. On the procedure:
All experiments involving mice were carried out according to protocols approved by the Institutional Animal Care and Use Committee at Cornell University. In all cases, 6-8 week old female NOD.Cg-Prkdcscid Il2rg^tm1Wjl/SzJ (NSG) mice (The Jackson Laboratory) were used. For xenograft experiments, a suspension of MDA-MB-453 breast cancer cells (or derivative cell lines stably expressing shRNAs) was mixed 1:1 with Matrigel Matrix (BD Biosciences) to give a final concentration of 3×10^6 cells per 100 μl, and 3×10^6 cells were immediately injected into each of the two flanks of 6-8 week old female NOD.Cg-Prkdc^scid Il2rg^tm1Wjl/SzJ (NSG) mice (n=3 mice per condition). Tumor sizes were measured using calipers, and estimated volumes were calculated using the formula V=(π/6)×length×width^2, as described previously (Tomayko et al., “Determination of Subcutaneous Tumor Size in Athymic (Nude) Mice,” Cancer Chemother Pharmacol. 24:148-154 (1989), which is hereby incorporated by reference in its entirety). For experiments using MDA-MB-453 cells stably expressing shRNAs, mice were sacrificed after 6 weeks. For 968 treatment studies, when tumors of 1-2 mm diameter were detected, the mice were randomly divided into two groups and intraperitoneal (IP) injections of 968 (10 mg/kg) solution or carrier solution were initiated and carried out three times weekly. […]

Data set [5] relates to primary human mammary epithelial cells or fibroblasts. The conditions noted are these: Wang et al. 2010; cited from earlier work.
The mark [6] stands for this setting: TSE (parental), compared with GLS2 clones, 6 days.
Where [7] appears, read: MDA-MB-231 GLS2 clone 1, 6 days.
Setting [8] is: MDA-MB-231 GLS2 clone 2, 6 days.

Regarding `O=C(Cc1ccccc1)Nc1nnc(CCSCCc2nnc(NC(=O)Cc3ccccc3)s2)s1` [BPTES], the 50% effective concentration (EC50) was roughly 20 µM in the data set with MCF7 cells; roughly 20 µM in the data set on MDA-MB-453 cells; 3 µM in the data set with TSE cells (setting [6]); 3.1 µM in the data set on TSE cells (TSE, proliferation over 6 days); 4.7 µM in the data set with HCC38 cells; 1.3 µM in data set [1]. The concentration giving a half-maximal response (EC50) is greater than 20 µM in data set [2] (setting [7]); greater than 20 µM in data set [2] (setting [8]); greater than 20 µM in data set [2] (MDA-MB-231 with ectopic expression of GLS2, 6 days); greater than 20 µM in [3] (TSE GLS2 clone 1, 6 days); greater than 20 µM in data set [3] (TSE GLS2 clone 2, 6 days); greater than 20 µM in [3] (TSE with ectopic expression of GLS2, 6 days). In the data set on DU4475 cells, the EC50 is greater than 20 µM. For the same molecule, in data set [4], the tumor growth entry is reported as “did not significantly impact tumor growth”.

With `CN(C)c1ccc(C2Nc3ccc4ccccc4c3C3=C2C(=O)CC(C)(C)C3)cc1Br` (stereo not drawn) [Compound 968], the EC50 amounted to 4 µM with MCF7 cells; 3 µM with MDA-MB-453 cells; 4 µM in the data set with TSE cells (setting [6]); 5 µM with TSE cells (TSE, proliferation over 6 days); 4 µM with HCC38 cells; 2 µM in [1]. In addition, the 50% effective concentration (EC50) in data set [2] (setting [7]) worked out at 4 µM; in [2] (setting [8]), 5 µM; in [3] (TSE GLS2 clone 1, 6 days), 7 µM; in data set [3] (TSE GLS2 clone 2, 6 days), 6 µM; in the data set on DU4475 cells, 4 µM. Further, the tumor growth entry in [4] is reported as “robustly inhibited”. For the same molecule, the “growth of primary human mammary epithelial cells or fibroblasts” value in data set [5] is reported as “does not affect the growth”.
